According to PubChem BioAssay AID2060605 (Molecular Pharmacology Branch, DTP, NCI, 2025):

System: 947758-054-R-J2-PDC spheroid growth, percent test/control
Assay: Anticancer human tumor 947758-054-R-J2-PDC patient-derived colon adenocarcinoma cell line growth inhibition [CLK]
Conditions: spheroids with HUVEC and MSC; for IC50: curve of first compound; for viability, T/C: stronger effect = lower value
Procedure, shortened: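 Patient-derived tumor cells grown as complex spheroids with HUVEC endothelial cells and mesenchymal stem cells, treated with drug combinations. Concentrations descend in half-log steps from near clinical Cmax, or from 10 microM if Cmax unknown.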
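Also: spheroids exposed to compounds for one week before readout.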
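For viability, T/C in this document: 100% = DMSO vehicle control wells.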

## CC(C)CC(NC(=O)C(Cc1ccccc1)NC(=O)c1cnccn1)B(O)O (centres undefined) + CNC(=O)c1ccc(Nc2nc(OC3CCCC3)c3c(-c4ccc5nc(C)oc5c4)c[nH]c3n2)c(OC)c1
Second compound 0.0316 µM
  IC50: 1.85 nM
Second compound 0.1 µM
  IC50: 1.66 nM
Second compound 0.316 µM
  IC50: 1.72 nM
Second compound 1 µM
  IC50: 1.42 nM
Second compound 3.16 µM
  IC50: < 0.949 nM
Second compound 10 µM
  IC50: < 0.949 nM
Second compound 0.0316 µM, first compound 0.000949 µM
  viability, T/C: 117%
Second compound 0.0316 µM, first compound 0.003 µM
  viability, T/C: 1.15%
Second compound 0.0316 µM, first compound 0.00949 µM
  viability, T/C: 0.26%
Second compound 0.0316 µM, first compound 0.03 µM
  viability, T/C: 0.29%
Second compound 0.0316 µM, first compound 0.0949 µM
  viability, T/C: 0.3%
Second compound 0.0316 µM, first compound 0.3 µM
  viability, T/C: 0.28%
Second compound 0.1 µM, first compound 0.000949 µM
  viability, T/C: 89%
Second compound 0.1 µM, first compound 0.003 µM
  viability, T/C: 8.66%
Second compound 0.1 µM, first compound 0.00949 µM
  viability, T/C: 0.26%
Second compound 0.1 µM, first compound 0.03 µM
  viability, T/C: 0.27%
Second compound 0.1 µM, first compound 0.0949 µM
  viability, T/C: 0.25%
Second compound 0.1 µM, first compound 0.3 µM
  viability, T/C: 1.66%
Second compound 0.316 µM, first compound 0.000949 µM
  viability, T/C: 102%
Second compound 0.316 µM, first compound 0.003 µM
  viability, T/C: 1.44%
Second compound 0.316 µM, first compound 0.00949 µM
  viability, T/C: 0.22%
Second compound 0.316 µM, first compound 0.03 µM
  viability, T/C: 0.22%
Second compound 0.316 µM, first compound 0.0949 µM
  viability, T/C: 0.25%
Second compound 0.316 µM, first compound 0.3 µM
  viability, T/C: 0.23%
Second compound 1 µM, first compound 0.000949 µM
  viability, T/C: 75.7%
Second compound 1 µM, first compound 0.003 µM
  viability, T/C: 2.99%
Second compound 1 µM, first compound 0.00949 µM
  viability, T/C: 0.32%
Second compound 1 µM, first compound 0.03 µM
  viability, T/C: 0.21%
Second compound 1 µM, first compound 0.0949 µM
  viability, T/C: 0.26%
Second compound 1 µM, first compound 0.3 µM
  viability, T/C: 0.46%
Second compound 3.16 µM, first compound 0.000949 µM
  viability, T/C: 45.1%
Second compound 3.16 µM, first compound 0.003 µM
  viability, T/C: 0.43%
Second compound 3.16 µM, first compound 0.00949 µM
  viability, T/C: 0.21%
Second compound 3.16 µM, first compound 0.03 µM
  viability, T/C: 0.19%
Second compound 3.16 µM, first compound 0.0949 µM
  viability, T/C: 0.21%
Second compound 3.16 µM, first compound 0.3 µM
  viability, T/C: 0.24%
Second compound 10 µM, first compound 0.000949 µM
  viability, T/C: 38.8%
Second compound 10 µM, first compound 0.003 µM
  viability, T/C: 0.32%
Second compound 10 µM, first compound 0.00949 µM
  viability, T/C: 0.21%
Second compound 10 µM, first compound 0.03 µM
  viability, T/C: 0.2%
Second compound 10 µM, first compound 0.0949 µM
  viability, T/C: 0.23%
Second compound 10 µM, first compound 0.3 µM
  viability, T/C: 0.35%

## CCN1CCN(Cc2ccc(Nc3ncc(F)c(-c4cc(F)c5nc(C)n(C(C)C)c5c4)n3)nc2)CC1 + CN1CCN(c2cc(C(=O)Nc3cc4cc(-c5cnn(C)c5)ccc4cn3)ccn2)CC1
Second compound 0.0316 µM
  IC50: > 1000 nM
Second compound 0.1 µM
  IC50: 461 nM
Second compound 0.316 µM
  IC50: < 3.16 nM
Second compound 1 µM
  IC50: < 3.16 nM
Second compound 3.16 µM
  IC50: < 3.16 nM
Second compound 10 µM
  IC50: < 3.16 nM
Second compound 0.0316 µM, first compound 0.00316 µM
  viability, T/C: 145%
Second compound 0.0316 µM, first compound 0.01 µM
  viability, T/C: 133%
Second compound 0.0316 µM, first compound 0.0316 µM
  viability, T/C: 176%
Second compound 0.0316 µM, first compound 0.1 µM
  viability, T/C: 245%
Second compound 0.0316 µM, first compound 0.316 µM
  viability, T/C: 98.2%
Second compound 0.0316 µM, first compound 1 µM
  viability, T/C: 46.5%
Second compound 0.1 µM, first compound 0.00316 µM
  viability, T/C: 134%
Second compound 0.1 µM, first compound 0.01 µM
  viability, T/C: 141%
Second compound 0.1 µM, first compound 0.0316 µM
  viability, T/C: 105%
Second compound 0.1 µM, first compound 0.1 µM
  viability, T/C: 108%
Second compound 0.1 µM, first compound 0.316 µM
  viability, T/C: 52.7%
Second compound 0.1 µM, first compound 1 µM
  viability, T/C: 32.8%
Second compound 0.316 µM, first compound 0.00316 µM
  viability, T/C: 4.74%
Second compound 0.316 µM, first compound 0.01 µM
  viability, T/C: 7.5%
Second compound 0.316 µM, first compound 0.0316 µM
  viability, T/C: 5.93%
Second compound 0.316 µM, first compound 0.1 µM
  viability, T/C: 9.21%
Second compound 0.316 µM, first compound 0.316 µM
  viability, T/C: 14.7%
Second compound 0.316 µM, first compound 1 µM
  viability, T/C: 13.2%
Second compound 1 µM, first compound 0.00316 µM
  viability, T/C: 0.18%
Second compound 1 µM, first compound 0.01 µM
  viability, T/C: 2.83%
Second compound 1 µM, first compound 0.0316 µM
  viability, T/C: 0.19%
Second compound 1 µM, first compound 0.1 µM
  viability, T/C: 0.19%
Second compound 1 µM, first compound 0.316 µM
  viability, T/C: 0.18%
Second compound 1 µM, first compound 1 µM
  viability, T/C: 2.66%
Second compound 3.16 µM, first compound 0.00316 µM
  viability, T/C: 0.83%
Second compound 3.16 µM, first compound 0.01 µM
  viability, T/C: 0.69%
Second compound 3.16 µM, first compound 0.0316 µM
  viability, T/C: 0.21%
Second compound 3.16 µM, first compound 0.1 µM
  viability, T/C: 0.28%
Second compound 3.16 µM, first compound 0.316 µM
  viability, T/C: 2.63%
Second compound 3.16 µM, first compound 1 µM
  viability, T/C: 3.69%
Second compound 10 µM, first compound 0.00316 µM
  viability, T/C: 0.27%
Second compound 10 µM, first compound 0.01 µM
  viability, T/C: 1.7%
Second compound 10 µM, first compound 0.0316 µM
  viability, T/C: 0.31%
Second compound 10 µM, first compound 0.1 µM
  viability, T/C: 0.4%
Second compound 10 µM, first compound 0.316 µM
  viability, T/C: 0.75%
Second compound 10 µM, first compound 1 µM
  viability, T/C: 2.67%
